Data set [1] relates to E. coli TOP10 pCR2.1-(PNDM-1-blaNDM-1-bleMBL). The data set is described as follows: Preliminary MIC of imipenem with DMPS, broth microdilution. It is filed as cell-based. The note with it: MIC values of imipenem; 0 to 30 mM of DMPS; zinc-complemented M9CA medium; data not shown. On the technique in general: In broth dilution the organism is exposed to a series of concentrations in liquid medium.

The conditions of data set [2]: in vivo, cited from earlier work.
A further data set concerns the target IMP-1 (Serratia marcescens, UniProt P52699). The data set is described as follows: biochemical.
The target in a further data set is NDM-1 (Klebsiella pneumoniae, UniProt C7C422). The data set is described as follows: biochemical.
The target of a further data set is VIM-1 (Pseudomonas aeruginosa, UniProt A0A0F7KYQ8). The experiment in a line: biochemical.
In another data set the target is NDM-4 (Escherichia coli, UniProt H6WZS9). The data set is described as follows: In-vitro inhibition of purified metallo-ß-lactamase, UV spectrophotometry.
A further data set deals with KPC-3 (Klebsiella pneumoniae, UniProt Q9F663, H272Y). The experiment in a line: In-vitro inhibition of purified enzyme, non-metallo-enzyme negative control.
The subject of another data set is A. baumannii IMP-4. The experiment in a line: MIC of carbapenems with or without DMPS. It is filed as cell-based. To be noted: Acinetobacter baumannii, IMP4, carbapenem without DMPS, Zn 5mg/L. As for the experimental part: (§1) DMPS was evaluated as inhibitor of MBLs using a panel of strains producing the most clinically significant carbapenemases of the metallo-enzyme group. Minimum inhibitory concentrations (MICs) of carbapenems were determined in-vitro with strains (reference and clinical) producing main types of class B carbapenemases which are IMP, VIM, NDM, GIM and SPM with or without DMPS at various concentrations. […] The studied strains were clinical isolates (to mirror multidrug resistance in clinical isolates) for which a precise ß-lactamase gene content is known (Table 1). The strains were NDM, VIM-, IMP, SPM and GIM and producers as well as control of a non-MBL producer (OXA-48). The selected concentration of DMPS was 1-fold, […] and 30-fold (3 mM) that of the human peak serum concentration after a single IV dose of DMPS (Aposhian,1983).
(§2) A 100 mM DMPS stock solution (Sigma Aldrich, France) (pH 5.0) was prepared in 0.2 M NaOH as recommended (Maiorino et al. 1990) and pH was neutralized to pH 7.0 with NaHCO3 Na2Ca-EDTA (Sigma Aldrich, France) dissolved in water.

The subject of a further data set is A. baumannii NDM-1. The experiment in a line: MIC of carbapenems with or without DMPS. It is filed as cell-based. As to the method: as §1, §2
In another data set the test system is C. freundii VIM-2. The data set is described as follows: MIC of carbapenems with or without DMPS. It is filed as cell-based. To be noted: Zn 5mg/L. As for the experimental part:
as §1, §2

A further data set deals with E. cloacae GIM-1. The experiment in a line: MIC of carbapenems with or without DMPS. It is filed as cell-based. To be noted: Zn 5mg/L. As to the method: as §1, §2
The test system of another data set is E. coli NDM-1. The experiment in a line: MIC of carbapenems with or without DMPS. It is filed as cell-based. To be noted: Zn 5mg/L. As for the experimental part:
as §1, §2

For the next data set, the system named is E. coli NDM-4. The experiment in a line: MIC of carbapenems with or without DMPS. Format: cell-based. To be noted: Zn 5mg/L. As for the experimental part: as §1, §2
Another data set deals with E. coli NDM-5. The experiment in a line: MIC of carbapenems with or without DMPS. It is filed as cell-based. To be noted: Zn 5mg/L. As to the method:
as §1, §2

Another data set has as its system K. pneumoniae IMP-4. The data set is described as follows: MIC of carbapenems with or without DMPS. It is filed as cell-based. To be noted: Zn 5mg/L. As for the experimental part:
as §1, §2

Another data set has as its system K. pneumoniae IMP-8. The experiment in a line: MIC of carbapenems with or without DMPS. Format: cell-based. To be noted: Zn 5mg/L. As to the method:
as §1, §2

A further data set concerns K. pneumoniae NDM-1. The experiment in a line: MIC of carbapenems with or without DMPS. Format: cell-based. The note with it: Zn 5mg/L. As to the method: as §1, §2
In another data set the test system is K. pneumoniae VIM-4. The experiment in a line: MIC of carbapenems with or without DMPS. The note with it: Zn 5mg/L. It is filed as cell-based. As for the experimental part: as §1, §2
The subject of a further data set is P. aeruginosa GIM-1. The data set is described as follows: MIC of carbapenems with or without DMPS. Format: cell-based. The note with it: Zn 5mg/L. As to the method:
as §1, §2

Another data set relates to P. aeruginosa IMP-13. The data set is described as follows: MIC of carbapenems with or without DMPS. Format: cell-based. As to the method: as §1, §2
The test system of another data set is P. aeruginosa NDM1. The experiment in a line: MIC of carbapenems with or without DMPS. To be noted: carbapenem without DMPS, Zn 5mg/L. Format: cell-based. As to the method:
as §1, §2

Another data set concerns P. aeruginosa SPM1. The experiment in a line: MIC of carbapenems with or without DMPS. It is filed as cell-based. The note with it: Pseudomonas aeruginosa, carbapenem without DMPS, Zn 5mg/L. As to the method: as §1, §2
Another data set has as its system P. aeruginosa VIM-1. The experiment in a line: MIC of carbapenems with or without DMPS. Format: cell-based. As to the method: as §1, §2
Another data set relates to P. aeruginosa VIM-2. The experiment in a line: MIC of carbapenems with or without DMPS. It is filed as cell-based. To be noted: Zn 5mg/L. As to the method:
as §1, §2

The subject of another data set is P. putida VIM-2. The experiment in a line: MIC of carbapenems with or without DMPS. It is filed as cell-based. The note with it: Pseudomonas putida, VIM2. As for the experimental part: as §1, §2
The subject of the next data set is K. pneumoniae OXA-48. The experiment in a line: MIC of carbapenems with or without DMPS (non-MBL control). It is filed as cell-based. To be noted: K. pneumoniae OXA-48 (control), carbapenem without DMPS, Zn 5mg/L. As for the experimental part: as §1, §2

Values joined by “and” are separate entries in the source; they are usually repeats but may differ in a detail not shown here. Equal entries are not always repeated. Where two headings read alike, the source gives them in different places. Bounds are passed on as bounds.

Consider three compounds from EP3020415A1, “Thiol compounds for use in bacterial infections” (Université de Fribourg, priority 2014, dated 2016).

The IC50 is the concentration that gives 50% inhibition. Regarding `O=S(=O)([O-])CC(S)CS.[Na+]` (racemic) [DMPS], the “maximal inhibition efficiency (DMPS concentration)” value in [1] is 50 mM. Besides, in [2] (iv), the serum concentration entry is reported as “ca. 110 µM”. Also, the elimination result in data set [2] is “mostly eliminated by urines”. Moreover, the IC50 on IMP-1 was 70 µM; at NDM-1, 80 µM; at VIM-1, 180 µM; at NDM-4, 110 µM; at KPC-3 it was above 10000 µM.
The term MIC denotes the least concentration at which growth counts as inhibited. For the compound `C[C@@H](O)[C@H]1C(=O)N2C(C(=O)O)=C(SCCN=CN)C[C@H]12` [IPM, imipenem], the MIC in the data set on A. baumannii IMP-4 turned out to be 64 µg/mL; in the data set with A. baumannii NDM-1 (Acinetobacter baumannii, NDM1), 128 µg/mL; in the data set with C. freundii VIM-2 (Citrobacter freundii, VIM2, carbapenem without DMPS, read-out: MIC), 2 µg/mL; with E. cloacae GIM-1 (Enterobacter cloacae, GIM1, carbapenem without DMPS, read-out: MIC) it was 8 µg/mL; with E. coli NDM-1 (Escherichia coli, NDM1, carbapenem without DMPS, read-out: MIC) it was 8 µg/mL; in the data set with E. coli NDM-4 (Escherichia coli, NDM4, carbapenem without DMPS, read-out: MIC) it was 64 µg/mL. The MIC is 64 µg/mL with E. coli NDM-5 (Escherichia coli, NDM5, carbapenem without DMPS, read-out: MIC); 16 µg/mL in the data set on K. pneumoniae IMP-4 (Klebsiella pneumoniae, IMP4, carbapenem without DMPS, read-out: MIC); 8 µg/mL in the data set on K. pneumoniae IMP-8 (Klebsiella pneumoniae, IMP8, carbapenem without DMPS, read-out: MIC); 64 µg/mL in the data set with K. pneumoniae NDM-1 (Klebsiella pneumoniae, NDM1, carbapenem without DMPS, read-out: MIC); 64 µg/mL in the data set with K. pneumoniae VIM-4 (Klebsiella pneumoniae, VIM4, carbapenem without DMPS, read-out: MIC); above 1020 µg/mL in the data set with P. aeruginosa GIM-1 (Pseudomonas aeruginosa, GIM1, carbapenem without DMPS, read-out: MIC). Besides, the MIC was found to be 128 µg/mL in the data set on P. aeruginosa IMP-13 (Pseudomonas aeruginosa, IMP13); 1020 µg/mL in the data set on P. aeruginosa NDM1 (Pseudomonas aeruginosa, read-out: MIC); 1020 µg/mL in the data set on P. aeruginosa SPM1; 128 µg/mL with P. aeruginosa VIM-1 (Pseudomonas aeruginosa, VIM1); 1020 µg/mL in the data set on P. aeruginosa VIM-2 (Pseudomonas aeruginosa, VIM2, carbapenem without DMPS, read-out: MIC); 128 µg/mL in the data set on P. putida VIM-2. Besides, in the data set on K. pneumoniae OXA-48 (Klebsiella pneumoniae, OXA48, read-out: MIC), the MIC is 32 µg/mL.
On to `C[C@@H](O)[C@H]1C(=O)N2C(C(=O)O)=C(S[C@@H]3CN[C@H](C(=O)N(C)C)C3)[C@H](C)[C@H]12` [MEM, meropenem], for which the minimal inhibitory concentration (MIC) in the data set on A. baumannii NDM-1 (A. baumannii NDM-1, carbapenem without DMPS, Zn 5mg/L) was 256 µg/mL; with C. freundii VIM-2 (carbapenem without DMPS), 0.06 µg/mL; with E. cloacae GIM-1 (carbapenem without DMPS), 16 µg/mL; in the data set on E. coli NDM-1 (carbapenem without DMPS), 32 µg/mL and 16 µg/mL; with E. coli NDM-4 (carbapenem without DMPS) it was 64 µg/mL; in the data set on E. coli NDM-5 (carbapenem without DMPS), 64 µg/mL. For the same compound, the MIC with K. pneumoniae IMP-4 (carbapenem without DMPS) was 16 µg/mL; in the data set with K. pneumoniae IMP-8 (carbapenem without DMPS), 2 µg/mL; in the data set on K. pneumoniae NDM-1 (carbapenem without DMPS), 64 µg/mL; in the data set with K. pneumoniae VIM-4 (carbapenem without DMPS), 32 µg/mL; in the data set on P. aeruginosa GIM-1 (carbapenem without DMPS) it was 1,024 µg/ml; in the data set on P. aeruginosa IMP-13 (P. aeruginosa IMP-13, carbapenem without DMPS, Zn 5mg/L) it was 64 µg/mL. Moreover, the minimal inhibitory concentration (MIC) in the data set on P. aeruginosa NDM1 was 256 µg/mL; in the data set on P. aeruginosa VIM-1 (P. aeruginosa VIM-1, carbapenem without DMPS, Zn 5mg/L), 256 µg/mL; in the data set with P. aeruginosa VIM-2 (carbapenem without DMPS), 1,024 µg/ml; in the data set with K. pneumoniae OXA-48 it was 32 µg/mL.
